Assay results published in ChEMBL document CHEMBL1155189, “Bioactivity-guided isolation of cytotoxic constituents from stem-bark of Premna tomentosa” (Bioorg Med Chem Lett, 2009).
In brackets after ≈: the same amount, converted by molar mass.

Legend:
Format in all cases: functional, cell-based
HT-29 = assay: Cytotoxicity against human HT-29 cells after 48 hrs by MTT assay
MCF7 = assay: Cytotoxicity against human MCF7 cells after 48 hrs by MTT assay; settings: MCF7, 48 h
HepG2 = assay: Cytotoxicity against human HepG2 cells after 48 hrs by MTT assay
A549 = assay: Cytotoxicity against human A549 cells after 48 hrs by MTT assay; settings: A549, 48 h
A-431 = assay: Cytotoxicity against human A431 cells after 48 hrs by MTT assay
[1] = Homo sapiens, HT-29, 48 h, read-out: IC50
[2] = Homo sapiens, HepG2, 48 h, read-out: IC50

Structure (SMILES): CC(CO)c1cc(O)c2c(c1)CC[C@H]1C(C)(C)CCC[C@]1(O)C2 (stereo not given in full)
- IC50 (HT-29; ht-29): Not Active
- IC50 (MCF7): 80.8 µg/mL (≈ 254 µM)
- IC50 (HepG2; hepg2): Not Active
- IC50 (A549): 43.6 µg/mL (≈ 137 µM)
- IC50 (A-431): Not Active

Structure (SMILES): CC(CO)c1cc2c(c(O)c1O)C[C@@]1(O)CCCC(C)(C)[C@@H]1CC2 (stereo not given in full)
- IC50 (HT-29; [1]): 16.2 µg/mL (≈ 48.5 µM)
- IC50 (MCF7): 16 µg/mL (≈ 47.7 µM)
- IC50 (HepG2; [2]): 18.6 µg/mL (≈ 55.7 µM)
- IC50 (A549): 18.6 µg/mL (≈ 55.7 µM)
- IC50 (A-431): Not Active

Structure (SMILES): CC(CO)c1cc(O)c2c(c1)[C@@H](O)C[C@H]1C(C)(C)CCC[C@]1(O)C2 (stereo not given in full)
- IC50 (HT-29; [1]): 14.6 µg/mL (≈ 43.6 µM)
- IC50 (MCF7): 15.8 µg/mL (≈ 47.4 µM)
- IC50 (HepG2; [2]): 34.4 µg/mL (≈ 103 µM)
- IC50 (A549): 21.4 µg/mL (≈ 63.9 µM)
- IC50 (A-431): Not Active
